The values that follow come from PubChem BioAssay (NCI).

Several values for one entry are separate records, joined by “and”; a condition that tells them apart may be missing. Equal entries are not always repeated.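 These data come from cells grown in 96-well plates and exposed to compound for 48 hours at five concentrations. GI50 is the concentration that inhibits growth by half. TGI: concentration producing complete growth inhibition.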 Some results are limits rather than exact numbers.

Common to all, as to assay: NCI tumour cell line growth inhibition, 48 h
Test [1] deals with CCRF-CEM leukemia.
Test [2] has as its system COLO 205 colon.
Test [3] has as its system DU-145 prostate.
In test [4] the test system is HCT-116 colon.
Test [5] has as its system KM12 colon.
For test [6], the system named is LOX IMVI melanoma.
Test [7] deals with M14 melanoma.
For test [8], the system named is NCI-H522 lung.
Test [9] relates to RPMI-8226 leukemia.
Test [10] deals with TK-10 renal.

On to `O=C(c1ccc(F)c(F)c1Nc1ccc(I)cc1F)N1CC(O)([C@@H]2CCCCN2)C1`, for which the GI50 in test [1] is 10.2 µM and > 10 µM; in [2] it was < 0.01 µM and 0.00238 µM; in test [3] it was 3.32 µM and 3.18 µM; in [4] it was < 0.0295 µM and 0.0851 µM; in test [5] it was < 0.0376 µM and 0.28 µM; in test [6], 0.0321 µM and 0.0191 µM. Also, the GI50 in [7] was < 0.01 µM and 0.00283 µM; in [8] it was 4.16 µM and 3.22 µM; in test [9] it was 0.992 µM and 3.1 µM; in test [10], 0.271 µM. Moreover, the TGI in test [1] is 26.7 µM and > 10 µM; in test [2], 4.06 µM; in test [3] it was 19.9 µM and > 10 µM; in test [4] it was 11.9 µM and > 10 µM; in test [5], 13.2 µM and > 10 µM; in [6], 2.15 µM and 1.7 µM. Moreover, the TGI in [7] was 0.205 µM and 0.0436 µM; in test [8] it was 21.6 µM and > 10 µM; in [9], 18.2 µM and > 10 µM; in test [10] it was 14.8 µM and > 10 µM.
In the case of `Cc1nc2ccccc2nc1-c1ccc(N=[N+]([O-])c2ccc(-c3nc4ccccc4nc3C)cc2)cc1`, the TGI in test [1], in [2], in test [3], in test [4], in test [5] and in test [6] was above 100 µM each time. Besides, the TGI in [7] is above 100 µM; in test [8], above 100 µM; in test [9] it was above 100 µM; in test [10] it was 50.5 µM.
As to `CC1=CC(=O)[C@@H](O)[C@]2(C)[C@H]3[C@@]4(O)OC[C@]35[C@H]([C@@H](C)[C@H]4O)[C@@H](O)C(=O)O[C@@H]5C[C@@H]12`, the TGI in test [1] stood at 1.45 µM; in test [2], 2.45 µM; in test [3] it was 1.69 µM; in test [4] it was 0.288 µM; in test [5], 1.72 µM; in test [6], 0.62 µM. The TGI is 1.04 µM in [7], 0.7 µM in [8], above 100 µM in test [9] and 7.76 µM in test [10].
As for `Nc1nc(N)c(N=Nc2ccc([As](=O)(O)O)cc2)c(=O)[nH]1`, the TGI in [1], in test [2], in test [3], in [4], in test [5] and in test [6] was above 100 µM throughout. Besides, the TGI in [7], in test [8], in [9] and in test [10] was above 100 µM throughout.
Consider `COc1cc(CNCCCN2C(=O)c3ccc4c5c(ccc(c35)C2=O)C(=O)N(CCCNCc2cc(OC)c(OC)c(OC)c2)C4=O)cc(OC)c1OC`, for which the GI50 in [1] was 0.3 µM; in test [2] it was 0.139 µM; in test [3], 0.436 µM; in [4] it was 0.133 µM; in test [5] it was 0.238 µM; in [6], 0.14 µM. For the same molecule, the GI50 in test [7] is 0.841 µM; in test [8], 0.409 µM; in test [9] it was 0.523 µM; in [10], 0.416 µM. The TGI came out at 4.07 µM in [1]; 0.352 µM in [2]; 1.11 µM in test [3]; 0.41 µM in test [4]; 0.834 µM in test [5]; 0.525 µM in test [6]. For the same molecule, the TGI in test [7] came to 1.6 µM; in test [8], 1.14 µM; in test [9], 2.34 µM; in test [10] it was 1.32 µM.
For `COc1cccc2c1C(=O)c1c(O)c3c(c(O)c1C2=O)CC(O)(/C(C)=N/NC(=O)CCC(=O)N/N=C(\C)C1(O)Cc2c(O)c4c(c(O)c2C(OC2CC(N)C(O)C(C)O2)C1)C(=O)c1c(OC)cccc1C4=O)CC3OC1CC(N)C(O)C(C)O1` (stereo not drawn), the GI50 was 0.113 µM in test [1]; 0.157 µM in test [2]; 0.302 µM in test [3]; 0.147 µM in [4]; 0.755 µM in [5]; 0.126 µM in [6]. Also, the GI50 in [7] was 0.292 µM; in test [8], 0.0503 µM; in [9], 0.209 µM; in [10] it was 0.574 µM. In addition, the TGI is 7.17 µM in test [1]; 0.795 µM in test [2]; 2.97 µM in test [3]; 0.914 µM in test [4]; above 14.5 µM in test [5]; 1.05 µM in test [6]. The TGI came out at 2.12 µM in [7], 0.327 µM in test [8], 4.17 µM in test [9] and 6.69 µM in [10].
Take `COC1C(O)=C2C(=O)O/C(C)=C/C=C/C=C/C=C\CC(c3ccccc3)NC(=O)\C=C/C=C\C=C\C=C\[C@@]2(C)[C@@H]1O` (stereo partly drawn): the TGI was found to be 0.0577 µM in [1]; 0.0564 µM in test [2]; 0.178 µM in test [3]; 0.0198 µM in test [4]; 0.165 µM in test [5]; 1.09 µM in [6]. In addition, the TGI in [7] was 0.35 µM; in test [8] it was below 0.0285 µM; in test [9], 0.0445 µM; in test [10], 0.272 µM.
For the molecule `COc1c(OC)c(OC)c(C(=O)/C=C/c2ccccc2)c(OC)c1OC`, the TGI was 18.1 µM in test [1]; 31.9 µM in test [2]; 12 µM in test [3]; 18.5 µM in [4]; 16.8 µM in test [5]; 36.7 µM in test [6]. Further, the TGI is 36.7 µM in [7], 14.7 µM in test [8], 20.3 µM in [9] and 26.4 µM in test [10].
For `O=C(CC(O)(C(F)(F)F)C(F)(F)F)c1cc(CC(=O)C(O)(C(F)(F)F)C(F)(F)F)cc(CC(=O)C(O)(C(F)(F)F)C(F)(F)F)c1`, the TGI in test [1] is above 10 µM; in test [2], 3.06 µM; in [3] it was above 10 µM; in test [4], 2.56 µM; in [5], 2.96 µM; in test [6], 2.81 µM. Further, the TGI in test [7] is above 9.09 µM; in [8], 4.59 µM; in test [9], above 10 µM; in test [10] it was 8.36 µM.
As for `N=c1ccn2c(n1)OC1C(O)C(CO)OC12` (stereo not drawn), the GI50 in [1] was 0.102 µM and 0.0335 µM; in [2], 2.28 µM; in test [3] it was 2.53 µM and 0.886 µM; in test [4] it was 0.164 µM; in test [5], 147 µM and > 40.9 µM; in test [6], 0.497 µM. The GI50 in test [7] was 0.228 µM; in test [8] it was above 100 µM; in [9] it was 3.97 µM. In addition, the TGI in test [1] is 92.2 µM; in test [2] it was above 1000 µM; in test [3], above 1000 µM; in test [4], above 1000 µM; in test [5], above 806 µM; in test [6], 98.9 µM and > 100 µM. The TGI in test [8], in [9] and in [10] was above 1000 µM throughout.
